In PubChem BioAssay (NCI):
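Following 48 hours of exposure in 96-well plates, responses at five concentrations were used to interpolate endpoints linearly. TGI is the concentration that stops growth completely.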

Tests used:
Assay in all cases: NCI-60 cell line screen, 48 h
[1] = system: 786-0 renal
[2] = system: A549 NSCLC
[3] = system: ACHN renal
[4] = system: BT-549 breast
[5] = system: CAKI-1 renal
[6] = system: CCRF-CEM leukemia
[7] = system: COLO 205 colon
[8] = system: DU-145 prostate
[9] = system: EKVX NSCLC
[10] = system: HCC-2998 colon
[11] = system: HCT-116 colon
[12] = system: HCT-15 colon
[13] = system: HOP-62 NSCLC
[14] = system: HS 578T breast
[15] = system: HT29 colon
[16] = system: IGROV1 ovarian
[17] = system: K-562 leukemia
[18] = system: KM12 colon
[19] = system: M14 melanoma
[20] = system: MALME-3M melanoma
[21] = system: MCF7 breast
[22] = system: MDA-MB-231 breast
[23] = system: MDA-MB-435
[24] = system: MDA-N
[25] = system: MOLT-4 leukemia
[26] = system: NCI-H226 lung
[27] = system: NCI-H23 lung
[28] = system: NCI-H460 lung
[29] = system: NCI-H522 lung
[30] = system: NCI/ADR-RES ovarian
[31] = system: OVCAR-3 ovarian
[32] = system: OVCAR-4 ovarian
[33] = system: OVCAR-5 ovarian
[34] = system: OVCAR-8 ovarian
[35] = system: PC-3 prostate
[36] = system: RXF 393 renal
[37] = system: SF-295 CNS
[38] = system: SF-539 CNS
[39] = system: SK-MEL-2 melanoma
[40] = system: SK-MEL-5 melanoma
[41] = system: SK-OV-3 ovarian
[42] = system: SN12C renal
[43] = system: SNB-19 CNS
[44] = system: SNB-75 CNS
[45] = system: SR leukemia
[46] = system: T-47D breast
[47] = system: TK-10 renal
[48] = system: U251 CNS
[49] = system: UACC-257 melanoma
[50] = system: UACC-62 melanoma
[51] = system: UO-31 renal
[52] = system: A498 renal
[53] = system: HL-60(TB) leukemia
[54] = system: HOP-92 NSCLC
[55] = system: LOX IMVI melanoma
[56] = system: RPMI-8226 leukemia
[57] = system: SF-268 CNS
[58] = system: SK-MEL-28 melanoma
[59] = system: SW-620 colon

For Clc1cc2nn(C3CCCCO3)nc2cc1Cl (centres undefined), the TGI [1] was > 100 µM, the TGI [2] was > 100 µM and the TGI [3] was > 100 µM. The TGI [4] was > 100 µM, the TGI [5] was > 100 µM and the TGI [6] was > 100 µM. The TGI [7] was > 100 µM, the TGI [8] was > 100 µM and the TGI [9] was > 100 µM. The TGI [10] was > 100 µM, the TGI [11] was > 100 µM and the TGI [12] was > 100 µM. For the same molecule, the TGI [13] was > 100 µM, the TGI [14] was > 100 µM and the TGI [15] was > 100 µM. The TGI [16] was > 100 µM, the TGI [17] was > 100 µM and the TGI [18] was > 100 µM. The TGI [19] was > 100 µM, the TGI [20] was > 100 µM and the TGI [21] was > 100 µM. The TGI [22] was > 100 µM, the TGI [23] was > 100 µM and the TGI [24] was > 100 µM. For the same molecule, the TGI [25] was > 100 µM, the TGI [26] was > 100 µM and the TGI [27] was > 100 µM. For the same molecule, the TGI [28] was > 100 µM, the TGI [29] was > 100 µM and the TGI [30] was > 100 µM. The TGI [31] was > 100 µM, the TGI [32] was > 100 µM and the TGI [33] was > 100 µM. The TGI [34] was > 100 µM, the TGI [35] was > 100 µM and the TGI [36] was > 100 µM. The TGI [37] was > 100 µM, the TGI [38] was > 100 µM and the TGI [39] was > 100 µM. The TGI [40] was > 100 µM, the TGI [41] was > 100 µM and the TGI [42] was > 100 µM. For the same molecule, the TGI [43] was > 100 µM, the TGI [44] was > 100 µM and the TGI [45] was > 100 µM. The TGI [46] was > 100 µM, the TGI [47] was > 100 µM and the TGI [48] was > 100 µM. For the same molecule, the TGI [49] was > 100 µM, the TGI [50] was > 100 µM and the TGI [51] was > 100 µM.

With NC(N)=NS(=O)(=O)c1ccc(N/N=C2/CCOC2=O)cc1 the TGI [1] was > 100 µM, the TGI [52] was > 100 µM and the TGI [2] was > 100 µM. The TGI [3] was > 100 µM, the TGI [4] was > 100 µM and the TGI [5] was > 100 µM. The TGI [6] was > 100 µM, the TGI [7] was > 100 µM and the TGI [8] was > 100 µM. For the same molecule, the TGI [9] was > 100 µM, the TGI [10] was > 100 µM and the TGI [11] was > 100 µM. The TGI [12] was > 100 µM, the TGI [53] was > 100 µM and the TGI [13] was 77.8 µM. For the same molecule, the TGI [54] was > 100 µM, the TGI [14] was > 100 µM and the TGI [15] was > 100 µM. For the same molecule, the TGI [16] was > 100 µM, the TGI [17] was > 100 µM and the TGI [18] was > 100 µM. The TGI [55] was > 100 µM, the TGI [19] was > 100 µM and the TGI [20] was > 100 µM. The TGI [21] was > 100 µM, the TGI [22] was > 100 µM and the TGI [23] was > 100 µM. For the same molecule, the TGI [24] was > 100 µM, the TGI [25] was > 100 µM and the TGI [26] was > 100 µM. The TGI [27] was > 100 µM, the TGI [28] was > 100 µM and the TGI [30] was > 100 µM. The TGI [31] was > 100 µM, the TGI [32] was > 100 µM and the TGI [33] was > 100 µM. The TGI [34] was > 100 µM, the TGI [35] was > 100 µM and the TGI [56] was > 100 µM. For the same molecule, the TGI [36] was > 100 µM, the TGI [57] was > 100 µM and the TGI [37] was > 100 µM. For the same molecule, the TGI [38] was > 100 µM, the TGI [39] was > 100 µM and the TGI [58] was > 100 µM. For the same molecule, the TGI [40] was > 100 µM, the TGI [41] was > 100 µM and the TGI [42] was > 100 µM. For the same molecule, the TGI [43] was > 100 µM, the TGI [44] was 58.7 µM and the TGI [45] was > 100 µM. The TGI [59] was > 100 µM, the TGI [46] was > 100 µM and the TGI [47] was > 100 µM. For the same molecule, the TGI [48] was > 100 µM, the TGI [49] was > 100 µM and the TGI [50] was > 100 µM. The TGI [51] was > 100 µM.
